Results from PubChem BioAssay (NCI).
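Values below derive from 48-hour exposures of cells grown in 96-well plates, with endpoints linearly interpolated between the two concentrations bracketing the appropriate inhibition level. GI50 is the concentration that inhibits growth by half. TGI: total growth inhibition.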

Experiments:
Assay in all cases: DTP human tumour cell line panel, 48 h
[1] = test system: ACHN renal
[2] = test system: SK-MEL-5 melanoma
[3] = test system: PC-3 prostate
[4] = test system: OVCAR-3 ovarian
[5] = test system: CCRF-CEM leukemia
[6] = test system: OVCAR-4 ovarian
[7] = test system: K-562 leukemia
[8] = test system: NCI-H23 lung

Compound `O=C1CC(C(=O)O)Cc2c(Br)ccc(O)c21` (configuration not stated) has a TGI [1] greater than 100 µM, a TGI [2] greater than 100 µM and a TGI [3] greater than 100 µM. For the same compound, the TGI [4] was greater than 100 µM, the TGI [5] was greater than 100 µM and the TGI [6] was greater than 100 µM. For the same compound, the TGI [7] was greater than 100 µM and the TGI [8] was greater than 100 µM.

Work on `COc1ccc(N=N/C(=N\NC(=O)c2cc(Br)ccc2O)c2ccc(N(CCC#N)CCC#N)cc2OC)cc1` yielded a GI50 [1] of 85.7 µg/mL, a TGI [1] greater than 150 µg/mL and a GI50 [2] of 56.1 µg/mL. It also gave a TGI [2] greater than 150 µg/mL, a GI50 [3] of 57.6 µg/mL and a TGI [3] greater than 150 µg/mL. For the same compound, the GI50 [4] was 51.4 µg/mL, the TGI [4] was greater than 150 µg/mL and the GI50 [5] was 57.1 µg/mL. The TGI [5] was greater than 150 µg/mL, the GI50 [6] was 28.5 µg/mL and the TGI [6] was 76 µg/mL. The GI50 [7] was 74.9 µg/mL, the TGI [7] was greater than 150 µg/mL and the GI50 [8] was 110 µg/mL. It also gave a TGI [8] greater than 150 µg/mL.

In the case of `COc1cc(-c2cc(-c3cccs3)c(C#N)c(N3CCOCC3)n2)cc(OC)c1OC`, the GI50 [1] is reported as 6.45 µM, the TGI [1] is reported as greater than 100 µM and the GI50 [2] is reported as 5.71 µM. For the same compound, the TGI [2] was greater than 100 µM, the GI50 [3] was 5.29 µM and the TGI [3] was greater than 100 µM. It also gave a GI50 [4] of 14.9 µM, a TGI [4] greater than 88.9 µM and a GI50 [5] of 5.66 µM. For the same compound, the TGI [5] was greater than 100 µM, the GI50 [6] was greater than 44.6 µM and the TGI [6] was greater than 100 µM. The GI50 [7] was 3.8 µM, the TGI [7] was greater than 100 µM and the GI50 [8] was greater than 52.1 µM. For the same compound, the TGI [8] was greater than 100 µM.

Work on `CC(=O)OC1CC2C(C)(C)CCC[C@]2(C)C2=C1C(O)=C(C(C)C)C(=O)C2=O` (some centres not stated) yielded a GI50 [1] of 0.465 µM, a TGI [1] of 1.66 µM and a GI50 [2] of 0.174 µM. It also gave a TGI [2] of 0.343 µM, a GI50 [3] of 0.731 µM and a TGI [3] of 5.12 µM. The GI50 [4] was 1.52 µM, the TGI [4] was 4.53 µM and the GI50 [5] was 1.12 µM. For the same compound, the TGI [5] was 7.03 µM, the GI50 [6] was 0.8 µM and the TGI [6] was 7.07 µM. It also gave a GI50 [7] of 0.919 µM, a TGI [7] greater than 100 µM and a GI50 [8] of 0.704 µM. The TGI [8] was 2.98 µM.

In the case of `COC(=O)CC1C2(C)C3=C(C)C(c4ccoc4)CC3OC2C2OC(=O)C3(C)C=CC(=O)C1(C)C23` (configuration not stated), the TGI [1] is reported as 2.52 µM, the TGI [2] is reported as 3.03 µM and the TGI [3] is reported as 3.43 µM. It also gave a TGI [4] of 7.56 µM, a TGI [5] of 2.17 µM and a TGI [6] of 10.1 µM. For the same compound, the TGI [7] was 4.82 µM and the TGI [8] was 3.52 µM.

In the case of `Clc1ccc(-c2nc3c(-c4ccccc4)nc(-c4ccccc4)cn3c2-c2ccc(Cl)cc2)cc1`, the GI50 [1] is reported as greater than 100 µM, the TGI [1] is reported as greater than 100 µM and the GI50 [2] is reported as greater than 100 µM. The TGI [2] was greater than 100 µM, the GI50 [3] was greater than 100 µM and the TGI [3] was greater than 100 µM. The GI50 [4] was greater than 100 µM, the TGI [4] was greater than 100 µM and the GI50 [5] was greater than 100 µM. It also gave a TGI [5] greater than 100 µM, a GI50 [6] greater than 100 µM and a TGI [6] greater than 100 µM. For the same compound, the GI50 [7] was greater than 100 µM, the TGI [7] was greater than 100 µM and the GI50 [8] was greater than 100 µM. The TGI [8] was greater than 100 µM.

`O=C1Nc2ccc(O)cc2/C1=C\c1ccncc1` showed a GI50 [1] of 11.7 µM, a TGI [1] of 27.9 µM and a GI50 [2] of 15.5 µM. For the same compound, the TGI [2] was 38.1 µM, the GI50 [3] was 26.9 µM and the TGI [3] was 77.8 µM. For the same compound, the GI50 [4] was 13.3 µM, the TGI [4] was 41 µM and the GI50 [7] was 17.7 µM. For the same compound, the TGI [7] was 56.2 µM, the GI50 [8] was 25.1 µM and the TGI [8] was 62.4 µM.

`Cc1cncc(-c2nc(NCCc3c[nH]c4ccccc34)c3ncn(C(C)C)c3n2)c1` gave a GI50 [1] of 3.76 µM, a TGI [1] of 13.5 µM and a GI50 [2] of 4.23 µM. It also gave a TGI [2] of 15.5 µM, a GI50 [3] of 3.98 µM and a TGI [3] of 35.8 µM. The GI50 [4] was 5.67 µM, the TGI [4] was 40.9 µM and the GI50 [5] was 2.99 µM. The TGI [5] was 9.84 µM, the GI50 [6] was 3.93 µM and the TGI [6] was 39.6 µM. It also gave a GI50 [8] of 5.34 µM and a TGI [8] of 19.4 µM.

Work on `C=C1C(=O)O[C@@H]2C[C@@H]1CC[C@]1(C)O[C@H]1CC/C(C)=C/CC[C@@]2(C)O` yielded a GI50 [2] of 24.3 µM, a TGI [2] of 52.7 µM and a GI50 [3] of 96.3 µM. For the same compound, the TGI [3] was greater than 100 µM, the GI50 [4] was 23.1 µM and the TGI [4] was 64.1 µM. For the same compound, the GI50 [5] was greater than 100 µM, the TGI [5] was greater than 100 µM and the GI50 [7] was 34.3 µM. The TGI [7] was greater than 100 µM, the GI50 [8] was 20.9 µM and the TGI [8] was 58.4 µM.

For `O=C(Nc1ccn(C2CC(I)C(COC(c3ccccc3)(c3ccccc3)c3ccccc3)O2)c(=O)n1)c1ccccc1` (configuration not stated), the TGI [1] was 21.5 µM, the TGI [2] was 14.9 µM and the TGI [3] was 20.9 µM. For the same compound, the TGI [4] was 13 µM, the TGI [5] was 17.3 µM and the TGI [6] was 16.7 µM. It also gave a TGI [7] of 21.5 µM and a TGI [8] of 21.5 µM.

Work on `CN1CCN(Cc2ccc(NC(=O)c3cncc(C#Cc4c(N)ncc5c(F)cccc45)c3)cc2C(F)(F)F)CC1` yielded a GI50 [1] of 0.708 µM, a TGI [1] of 1.36 µM and a GI50 [2] of 0.841 µM. The TGI [2] was 1.55 µM, the GI50 [3] was 0.787 µM and the TGI [3] was 1.6 µM. It also gave a GI50 [4] of 0.828 µM, a TGI [4] of 1.53 µM and a GI50 [6] of 0.503 µM. It also gave a TGI [6] of 1.25 µM, a GI50 [7] of 0.005 µM and a TGI [7] of 0.738 µM. The GI50 [8] was 0.804 µM and the TGI [8] was 1.69 µM.

`COc1cc(N2CCN(C(C)C)CC2)ccc1Nc1nc(Nc2ccc(F)cc2C(=O)NCC(O)CO)c2cc[nH]c2n1` (configuration not stated) was tested, and the GI50 [1] was greater than 25 µM, the TGI [1] was greater than 25 µM and the GI50 [2] was 11.4 µM. It also gave a TGI [2] greater than 25 µM, a GI50 [3] greater than 25 µM and a TGI [3] greater than 25 µM. The GI50 [4] was greater than 25 µM, the TGI [4] was greater than 25 µM and the GI50 [5] was 2.65 µM. The TGI [5] was greater than 25 µM, the GI50 [6] was greater than 25 µM and the TGI [6] was greater than 25 µM. For the same compound, the GI50 [7] was greater than 19.9 µM, the TGI [7] was greater than 25 µM and the GI50 [8] was 4.22 µM. The TGI [8] was greater than 23.3 µM.

Compound `Cc1ccc(/C=C(/C#N)n2nnc3ncccc32)cc1` has a GI50 [1] of 2.66 µM, a TGI [1] of 13.4 µM and a GI50 [2] of 2.89 µM. It also gave a TGI [2] of 12.8 µM, a GI50 [3] of 4.18 µM and a TGI [3] of 21.2 µM. The GI50 [4] was 0.801 µM, the TGI [4] was 3.74 µM and the GI50 [5] was 3.08 µM. For the same compound, the TGI [5] was greater than 100 µM, the GI50 [6] was 2.14 µM and the TGI [6] was 15.8 µM. The GI50 [7] was 0.545 µM, the TGI [7] was greater than 100 µM and the GI50 [8] was 3.09 µM. It also gave a TGI [8] of 17.9 µM.

Work on `Cc1ccc(S(=O)(=O)OCC(=O)Nc2ccc(C(=O)O)c(O)c2)cc1` yielded a GI50 [1] of 43.1 µM, a TGI [1] of 159 µM and a GI50 [2] of 27 µM. It also gave a TGI [2] of 82.6 µM, a GI50 [3] of 30.4 µM and a TGI [3] of 131 µM. For the same compound, the GI50 [4] was 19.3 µM, the TGI [4] was 44.5 µM and the GI50 [5] was 13.7 µM. For the same compound, the TGI [5] was 69 µM, the GI50 [6] was 26.8 µM and the TGI [6] was 143 µM. For the same compound, the GI50 [7] was 28.9 µM, the TGI [7] was 120 µM and the GI50 [8] was 29.4 µM. It also gave a TGI [8] of 105 µM.

`O=c1c2ccccc2nc2n1CCc1c-2[nH]c2cc3c(cc12)OCO3` showed a TGI [1] greater than 25 µM, a TGI [2] greater than 25 µM and a TGI [3] greater than 25 µM. The GI50 [5] was greater than 25 µM, the TGI [5] was greater than 25 µM and the GI50 [6] was 1.5 µM. It also gave a TGI [6] of 6.35 µM and a TGI [7] greater than 25 µM.

In the case of `CCC(CC)c1cc(N[C@H]2CC[C@H](N)C2)n2nccc2n1`, the GI50 [1] is reported as 1.44 µM, the TGI [1] is reported as greater than 100 µM and the GI50 [2] is reported as 2.21 µM. For the same compound, the TGI [2] was 11 µM, the GI50 [3] was 2.43 µM and the TGI [3] was greater than 100 µM. For the same compound, the GI50 [4] was 1.01 µM, the TGI [4] was greater than 100 µM and the GI50 [5] was 1.08 µM. It also gave a TGI [5] greater than 100 µM, a GI50 [6] of 0.978 µM and a TGI [6] of 22.8 µM. It also gave a GI50 [7] of 0.642 µM, a TGI [7] greater than 100 µM and a GI50 [8] of 2.2 µM. It also gave a TGI [8] of 8.29 µM.
